From patent publication US20220304936A1, “DRUG-POLYMER AMORPHOUS SOLID DISPERSIONS USING LINEAR POLY(ACRYLIC ACID) POLYMERS” (LUBRIZOL ADVANCED MATERIALS, INC., priority 2019, published 2022)
In brackets after ≈: the same amount, converted by molar mass.

How the values were obtained:
[1] = Physical form and Tg of formulations by XRPD and/or DSC; type: physicochemical; details: as prepared
Protocol: The physical form of the product is identified visually (e.g., solid powder) and by XRPD and/or DSC (to assess amorphous or crystalline state). Tg values are estimates from DSC curves.
X-ray Powder Diffraction (XRPD) is performed with a Panalytical X'Pert^3 Powder XRPD. FIGS. 8-10 show XRPD plots for various formulations made using ITZ and PAA-8. In FIG. 8, plots for ITZ alone (Neat IZT, Formulation F25), a physical mixture of 15% ITZ and 85% PAA (PM 15%, Formulation F26), and a spray-dried solid dispersion of 15% ITZ and 85% PAA (ASD 15%, Formulation F2), are shown. In FIG. 9, plots for ITZ alone (Neat IZT, Formulation F25), a physical mixture of 30% ITZ and 70% PAA (PM 30%, Formulation F27), and a spray-dried solid dispersion of 30% ITZ and 70% PAA (ASD 30%, Formulation F3), are shown. In FIG. 10, plots for ITZ alone (Neat IZT, Formulation F25), a physical mixture of 50% ITZ and 50% PAA (PM 50%, Formulation F28), and a spray-dried solid dispersion of 50% ITZ and 50% PAA (ASD 50%, Formulation F5), are shown.
XRPD is performed with Si zero background holders. The 2-theta position is performed with a Panalytical Si reference standard disc. The XRPD instrument configuration is Bragg-Brentano geometry.
Differential Scanning calorimetry (DSC) is performed with a Mettler-Toldeo DSC-1 instrument (no modulated DSC software) using a sample amount of 5-10 mg. […]

[2] = model APIs; cited from earlier work
[3] = cited from earlier work
[4] = Solubility limit of drug in equilibrated dissolution media; type: physicochemical; details: equilibrated dissolution media (0.1 N HCl), simulated gastric fluid; 750 mL 0.1 N HCl, 37° C.

In the case of `CC(C)c1nc(CN(C)C(=O)N[C@H](C(=O)N[C@@H](Cc2ccccc2)C[C@H](O)[C@H](Cc2ccccc2)NC(=O)OCc2cncs2)C(C)C)cs1` [Ritonavir, 5-thiazolylmethyl ((alphaS)-alpha-((1S,3S)-1-hydroxy-3-((2S)-2-(3-((2-isopropyl-4-thiazolyl)methyl)-3-methylureido)-3-methylbutyramido)-4-phenylbutyl)phenethyl)carbamate], the Form [1] is listed as “Crystalline” and the “Glass transition temperature, Tg (° C.)” value [2] is listed as 45 °C.
For `CCC(C)n1ncn(-c2ccc(N3CCN(c4ccc(OCC5COC(Cn6cncn6)(c6ccc(Cl)cc6Cl)O5)cc4)CC3)cc2)c1=O` [Itraconazole, 1-(butan-2-yl)-4-{4-[4-(4-{[(2R, 4S)-2-(2,4-dichlorophenyl)-2-(1H-1,2,4-triazol-1-ylmethyl)-1,3-dioxolan-4-yl]methoxylphenyl)piperazin-1-yl]phenyl}-4,5-dihydro-1H-1,2,4-triazol-5-one], the Aqueous solubility [3] is given as 0.001 to 0.004 µg/mL, the solubility in water ([3]; water) is given as 0.001 to 0.004 µg/mL and the solubility [4] is given as 4 to 6 µg/mL (≈ 5.67 to 8.5 µM).
